Source: US8765742B2, “Crystalline methylthioninium chloride hydrates” (Wista Laboratories Ltd., priority 2009, dated 2014)

Experiment: Thermodynamic stability of the crystalline hydrate form at room temperature as a function of relative humidity
Format: physicochemical
Settings: over the whole range of relative humidity

thermodynamic stability at room temperature: thermodynamically metastable
SMILES: CN(C)c1ccc2nc3ccc(=[N+](C)C)cc-3sc2c1 [Form B, methylthioninium chloride dihydrate]
